The source of these data is US20230051589A1, “COMPOUNDS AND COMPOSITIONS FOR TREATING CONDITIONS ASSOCIATED WITH NLRP ACTIVITY” (Novartis AG, priority 2018, published 2023).

By IC50 is commonly meant the concentration at which inhibition is half-maximal.

In this assay the test system is IL-1β production in PMA-differentiated THP-1 cells. The assay can be described thus: IL-1β production in PMA-differentiated THP-1 cells stimulated with gramicidin (hTHP-1 assay, 2% fetal bovine serum; Procedures 1-3). It is filed as cell-based, human. As to conditions: Table B1; hTHP-1 assay containing 2% fetal bovine serum, gramicidin stimulation, IL-1β readout; read-out: hTHP-1 IC50 (average). The method, then:
The following protocol is suitable for testing the activity of the compounds disclosed herein.
Procedure 1: IL-1β Production in PMA-Differentiated THP-1 Cells Stimulated with Gramicidin.
THP-1 cells were purchased from the American Type Culture Collection and sub-cultured according to instructions from the supplier. Cells were cultured in complete RPMI 1640 (containing 10% heat inactivated FBS, penicillin (100 units/ml) and streptomycin (100 μg/ml)), and maintained in log phase prior to experimental setup. Prior to the experiment, compounds were dissolved in dimethyl sulfoxide (DMSO) to generate a 30 mM stock. The compound stock was first pre-diluted in DMSO to 3, 0.34, 0.042 and 0.0083 mM intermediate concentrations and subsequently spotted using Echo550 liquid handler into an empty 384-well assay plate to achieve desired final concentration (e.g. 100, 33, 11, 3.7, 1.2, 0.41, 0.14, 0.046, 0.015, 0.0051, 0.0017 μM). DMSO was backfilled in the plate to achieve a final DMSO assay concentration of 0.37%. The plate was then sealed and stored at room temperature until required.
THP-1 cells were treated with PMA (Phorbol 12-myristate 13-acetate) (20 ng/ml) for 16-18 hours. On the day of the experiment the media was removed and adherent cells were detached with trypsin for 5 minutes. Cells were then harvested, washed with complete RPMI 1640, spun down, and resuspended in RPMI 1640 (containing 2% heat inactivated FBS, penicillin (100 units/ml) and streptomycin (100 μg/ml). The cells were plated in the 384-well assay plate containing the spotted compounds at a density of 50,000 cells/well (final assay volume 50 μl). Cells were incubated with compounds for 1 hour and then stimulated with gramicidin (5 μM) (Enzo) for 2 hours. Plates were then centrifuged at 340 g for 5 min. Cell free supernatant (40 μL) was collected using a 96-channel PlateMaster (Gilson) and the production of IL-1β was evaluated by HTRF (cisbio). The plates were incubated for 18 h at 4° C. and read using the preset HTRF program (donor emission at 620 nm, acceptor emission at 668 nm) of the SpectraMax i3x spectrophotometer (Molecular Devices, software SoftMax 6). A vehicle only control and a dose titration of CRID3 (100-0.0017 μM) were run concurrently with each experiment.
Procedure 2: IL-1β Production in PMA-Differentiated THP-1 Cells Stimulated with Gramicidin.
THP-1 cells were purchased from the American Type Culture Collection and sub-cultured according to instructions from the supplier. Prior to experiments, cells were cultured in complete RPMI 1640 (containing 10% heat inactivated FBS, penicillin (100 units/ml) and streptomycin (100 μg/ml)), and maintained in log phase prior to experimental setup. Prior to the experiment THP-1 were treated with PMA (Phorbol 12-myristate 13-acetate) (20 ng/ml) for 16-18 hours. Compounds were dissolved in dimethyl sulfoxide (DMSO) to generate a 30 mM stock. On the day of the experiment the media was removed and adherent cells were detached with trypsin for 5 minutes. Cells were then harvested, washed with complete RPMI 1640, spun down, resuspended in RPMI 1640 (containing 2% heat inactivated FBS, penicillin (100 units/ml) and streptomycin (100 μg/ml) . The cells were plated in a 384-well plate at a density of 50,000 cells/well (final assay volume 50 μl). Compounds were first dissolved in assay medium to obtain a 5× top concentration of 500 μM. 10 step dilutions (1:3) were then undertaken in assay medium containing 1.67% DMSO. 5× compound solutions were added to the culture medium to achieve desired final concentration (e.g. 100, 33, 11, 3.7, 1.2, 0.41, 0.14, 0.046, 0.015, 0.0051, 0.0017 μM). Final DMSO concentration was at 0.37%. Cells were incubated with compounds for 1 hour and then stimulated with gramicidin (5 μM) (Enzo) for 2 hours. Plates were then centrifuged at 340 g for 5 min. Cell free supernatant (40 μL) was collected using a 96-channel PlateMaster (Gilson) and the production of IL-1β was evaluated by HTRF (cisbio). […]
Regarding `CC(C)(O)c1ncc(S(N)(=O)=NC(=O)Nc2c3c(cc4c2CCC4O)CCC3)s1` (single isomer, unassigned) [Example 338, (R, S) or (R, R)-N′-((1-hydroxy-1,2,3,5,6,7-hexa-hydro-s-indacen-4-yl)-carbamoyl)-2-(2-hydroxy-propan-2-yl)thiazole-5-sulfonimidamide], the IC50 lay within 1000 to 5000 nM.
Consider `CC(C)(O)c1ncc(S(N)(=O)=NC(=O)Nc2c3c(cc4c2OCC4)CCC3)s1` (single isomer, unassigned) [Example 343, (R) or (S)-2-(2-hydroxy-propan-2-yl)-N′-((3,5,6,7-tetrahydro-2H-indeno[5,6-b]furan-8-yl)carbamoyl)-thiazole-5-sulfonimidamide], for which the IC50 was 40 to 200 nM.
On to `CC(C)(O)c1cnc(S(N)(=O)=NC(=O)Nc2c3c(cc4c2OCC4)CCC3)s1` (single isomer, unassigned) [Example 350, (R) or (S)-5-(2-hydroxy-propan-2-yl)-N′-((3,5,6,7-tetrahydro-2H-indeno-[5,6-b]furan-8-yl)carbam-oyl)thiazole-2-sulfonimid-amide], for which the IC50 was 40 to 200 nM.
Under `CC(C)(O)c1csc(S(N)(=O)=NC(=O)Nc2c3c(cc4c2OCC4)CCC3)n1` (single isomer, unassigned) [Example 354, (R) or (S)-4-(2-hydroxy-propan-2-yl)-N′-((3,5,6,7-tetrahydro-2H-indeno-[5,6-b]furan-8-yl)carbam-oyl)thiazole-2-sulfonimid-amide] stands 8 to 40 nM; under `CN(C)S(=O)(=NC(=O)Nc1c2c(cc3c1CCC3)CCC2)c1cc(C(C)(C)O)cs1` (single isomer, unassigned) [Example 357, (R) or (S)-N′-((1,2,3,5,6,7-hexahydro-s-indacen-4-yl)-carbamoyl)-4-(2-hydroxy-propan-2-yl)-N,N-dimeth-ylthiophene-2-sulfonimid-amide], 5000 to 30000 nM.
Consider `CN(C)C(C)(C)c1ccc(S(N)(=O)=NC(=O)Nc2c3c(cc4c2CCC4)CCC3)cc1` (single isomer, unassigned) [Example 361, (R) or (S)-4-(2-(dimethyl-amino)propan-2-yl)-N′-((1,2,3,5,6,7-hexahydro-s-indacen-4-yl)carbamoyl)-benzenesulfonimidamide], for which the half-inhibitory concentration (IC50) lay within 40 to 200 nM.
Under `CC(C)(O)c1ncc(S(N)(=O)=NC(=O)Nc2c3c(cc4c2C(=O)CC4)CCC3)s1` (single isomer, unassigned) [Example 364, (R) or (S)-2-(2-Hydroxy-propan-2-yl)-N′-((3-oxo-1,2,3,5,6,7-hexahydro-s-indacen-4-yl)carbamoyl)-thiazole-5-sulfonimidamide] stands 40 to 200 nM; under `CC(=O)N(C)Cc1ccc(S(N)(=O)=NC(=O)Nc2c3c(cc4c2CCC4)CCC3)cc1` (single isomer, unassigned) [Example 366, (R) or (S)-N-(4-N′-((1,2,3,5,6,7-hexahydro-s-indacen-4-yl)carbamoyl)-sulfamidimidoyl)benzyl)-N-methylacetamide], 1000 to 5000 nM; under `CC(c1ccc(S(N)(=O)=NC(=O)Nc2c3c(cc4c2CCC4)CCC3)cc1)N(C)C` (single isomer, unassigned) [Example 372, (R) or (S)-4-(1-(dimethyl-amino)ethyl)-N′-((1,2,3,5,6,7-hexahydro-s-indacen-4-yl)carbamoyl)-benzenesulfonimidamide], 40 to 200 nM.
`CC(c1ccc(S(N)(=O)=NC(=O)Nc2c3c(cc4c2CCC4)CCC3)cc1)N(C)C` (single isomer, unassigned) [Example 377, (R, R) or (R, S) or (S, S) or (S, R)-4-(1-(dimethyl-amino)ethyl)-N′-((1,2,3,5,6,7-hexahydro-s-indacen-4-yl)carbamoyl)-benzenesulfonimidamide]: the IC50 was 40 to 200 nM.
Under `COC1CN(Cc2ccc(S(N)(=O)=NC(=O)Nc3c4c(cc5c3CCC5)CCC4)cc2)C1` (single isomer, unassigned) [Example 379, (R) or (S)-N′-((1,2,3,5,6,7-hexahydro-s-indacen-4-yl)carbamoyl)-4-((3-methoxyazelidin-1-yl)-methyl)benzenesulfonimid-amide] stands 1000 to 5000 nM; under `CN(C)Cc1cc(F)c(S(N)(=O)=NC(=O)Nc2c3c(cc4c2CCC4)CCC3)s1` (single isomer, unassigned) [Example 381, (R) or (S)-5-((dimethyl-amino)methyl)-3-fluoro-N′-((1,2,3,5,6,7-hexa-hydro-s-indacen-4-yl)-carbamoyl)thiophene-2-sulfonimidamide], 8 to 40 nM; under `CC(C)(O)c1cc(F)c(S(N)(=O)=NC(=O)Nc2c3c(cc4c2CCC4)CCC3)s1` (single isomer, unassigned) [Example 385, (R) or (S)-3-fluoro-N′-((1,2,3,5,6,7-hexahydro-s-indacen-4-yl)carbamoyl)-5-(2-hydroxypropan-2-yl)thiophene-2-sulfonimid-amide], 8 to 40 nM.
For `COC(C)(C)c1ncc(S(N)(=O)=NC(=O)Nc2c3c(cc4c2CCC4)CCC3)s1` (single isomer, unassigned) [Example 388, (R) or (S)-N′-((1,2,3,5,6,7-hexahydro-s-indacen-4-yl)carbamoyl)-2-(2-meth-oxypropan-2-yl)thiazole-5-sulfonimidamide], the IC50 lay in the range of 40 to 200 nM.
Under `COCCN(C)Cc1ccc(S(N)(=O)=NC(=O)Nc2c3c(cc4c2CCC4)CCC3)cc1` (single isomer, unassigned) [Example 390, (R) or (S)-N′-((1,2,3,5,6,7-hexahydro-s-indacen-4-yl)carbamoyl)-4-(((2-meth-oxyethyl)(methyl)amino)-methyl)benzenesulfonimid-amide] stands 1000 to 5000 nM.
The result for `CC(C)(O)c1ncc(S(N)(=O)=NC(=O)Nc2c3c(cc4c2C(O)CC4)CCC3)s1` (single isomer, unassigned) [Example 391, (R, R) or (R, S) or (S, S) or (S, R)-N′-((3-hydroxy-1,2,3,5,6,7-hexahydro-s-indacen-4-yl)carbamoyl)-2-(2-hydroxypropan-2-yl)thiazole-5-sulfonimid-amide] reads 200 to 1000 nM; that for `CC(C)(O)c1ncc(S(N)(=O)=NC(=O)Nc2c3c(cc4c2C(O)CC4)CCC3)s1` (single isomer, unassigned) [Example 392, (R, S) or (R, R) or (S, R) or (S, S)-N′-((3-hydroxy-1,2,3,5,6,7-hexahydroxy-indacen-4-yl)carbamoyl)-2-(2-hydroxypropan-2-yl)thiazole-5-sulfonimid-amide], 200 to 1000 nM; that for `CN1CCc2cc(S(N)(=O)=NC(=O)Nc3c4c(cc5c3CCC5)CCC4)ccc2C1` (single isomer, unassigned) [Example 395, (R) or (S)-N′-((1,2,3,5,6,7-hexahydro-s-indacen-4-yl)carbamoyl)-2-methyl-1,2,3,4-tetrahydroisoquin-oline-6-sulfonimidamide], 1000 to 5000 nM.
On to `COC(C)(C)c1ccc(S(N)(=O)=NC(=O)Nc2c3c(cc4c2CCC4)CCC3)cc1` (single isomer, unassigned) [Example 399, (R) or (S)-N′-((1,2,3,5,6,7-hexahydro-s-indacen-4-yl)carbamoyl)-4-(2-meth-oxypropan-2-yl)benzene-sulfonimidamide], for which the IC50 lay in the range of 200 to 1000 nM.
